Laboratory results as given in patent US9782424B2, “Synergistic combination comprising avermectins and a NSAID for tumor inhibition” (Ectin Research AB, priority 2011, dated 2017).
“Also recorded” adds a separate entry of the source.

Tests used:
[1] = tested on: colorectal cells (Colo205); experiment: Morphology of cultured tumor cells, Colo205; format: cell-based, human
Procedure: (§1) Commercially available human tumor cell lines were purchased from ATCC (ATCC/LGC-standards, Borás, Sweden). […] Briefly, ampoules of frozen cells were thawed by submerging into a 37° C. water bath for 45 s. […] With supernatant discarded, cell pellets were further resuspended with 5 ml complete medium into 25 cm^2 cell culture flasks (Cell+, Sarstedt, Nümbrecht, Germany). Tumor cells were cultured until sub-confluence and further sub-cultured with Trypsin (0.5%), EDTA (0.2%) solution (T4174, TE-10x, Sigma) in sterile sodium chloride. Culture media was changed two-three times a week. Culture flasks (Cell+, Sarstedt, Nümbrecht, Germany) and culture plates (Falcon/BD, Franklin Lakes, N.J., USA) were used for experimental set-ups. Cells were regularly monitored using an inverted microscope connected to a digital photo equipment (Axiovert 25 and Axiovision, Zeiss, Carl Zeiss AG, Germany) (FIG. 1). Described culture techniques and equipment have been used extensively in the laboratory
(§2) The effect of Ivermectin, selamectin, abamectin alone, or in combination with ketoconazole, albendazole, ibuprofen, diclofenac and celecoxib on the morphology of cultured human tumor cells was studied. The effect of ivermectin in the presence of increasing concentration of ivermectin was also investigated. Cells were grown into sub-confluence and then sub-cultured into 12 and 24 well plates (Sarstedt, Falcon/BD) for morphology studies, or in 96 well plates (Sarstedt, Falcon/BD) for proliferation studies.

[2] = tested on: urinary bladder cells (UM-UC-3); experiment: Morphology of cultured tumor cells, UM-UC-3; format: cell-based, human; conditions: ivermectin 100 μM, 24 hours (FIG. 6)
Procedure: (§3) Commercially available human tumor cell lines were purchased from ATCC (ATCC/LGC-standards, Borás, Sweden). Cell lines from urinary bladder (UM-UC-3, #CRL-1749), colorectal carcinoma (Colo205, #CCL-222 and HT29, #HTB-38), prostate carcinoma (LNCaP, #CRL-1740) and breast carcinoma (ZR-75-1, #CRL-1500) were purchased and stored in liquid nitrogen. Cells were cultured in Roswell Park Memorial Institute media (RPMI-1640) or minimum essential medium with Earl's salts (EMEM) supplemented with 10% Foetal calf serum (FCS, Sigma) and cultured using a 37° C. cell culture incubator (Forma Scientific, NinoLab, Kungsbacka, Sweden) with 5% CO2 humidified atmosphere. Tumor cell lines were handled aseptically using a laminar airflow (LAF) bench (Holten 2448, Ninolab, Sweden) and stored in a liquid nitrogen tank and were initiated in culture as previously described (Falk P. Experimental models of the peritoneal environment: Effects of TGF-beta and Hyaluronan. Göteborg: University of Gothenburg; 2008). Briefly, ampoules of frozen cells were thawed by submerging into a 37° C. water bath for 45 s. Cells were resuspended in 10 ml of preheated RPMI-1640 with 10% FCS and centrifuged in 260 g for 10 min. […] Cells were regularly monitored using an inverted microscope connected to a digital photo equipment (Axiovert 25 and Axiovision, Zeiss, Carl Zeiss AG, Germany) (FIG. 1). […]

prostate cells (LNCaP) = experiment: Morphology of cultured tumor cells, LNCaP; format: cell-based, human; conditions: for Effect on morphology: 24 hours (FIG. 8)
Procedure: as §1, §2

[3] = tested on: breast cell line (ZR-75-1); experiment: XTT-assay proliferation rate, breast cell line; format: cell-based, human; conditions: for Proliferation rate in per cent compared to untreated medium control: 2R-75-1 breast Ca; for Proliferation rate compared to untreated control: ZR-75-1 (Table 6)
Procedure: as §1
The proliferation rates of the different human tumor cell lines were studied using a method based on the conversion of a sodium salt (XTT-assay, Sigma) into a stable orange color that could be analyzed in a spectrophotometer. […] The color change was measured using a 96-well plate reader with software to calculate the absorbance at 450 nm (V-max/Softmax Pro, Molecular Devices, USA).
Increasing concentrations of substance ivermectin was added with an 8-channel pipette (Titertek, Kem-En-Tec, Taastrup, Denmark) together with sterile pipette tips (Molecular Bioproducts, San Diego, Calif., USA). Cell cultures including active substances were incubated for 24 hours (and 96 hours). Untreated wells including culture medium only served as untreated controls. The XTT-assay substrate was added and after gentle agitation using a micro plate shaker, absorbencies at 450 and 650 nm were measured. Levels from medium were subtracted and compared with control wells, using culture medium only.

[4] = tested on: advanced urothelial cancer with extensive metastasis; experiment: Case observation of a patient given ivermectin; format: in vivo, human; conditions: middle age person, standard treatment dosage for Strongyloidiasis, no other medication
Text: The present studies are based on an observation describing a middle age person suffering from an advanced urothelial cancer with extensive metastasis. Due to a tropical infection (Strongyloidiasis) this patient received the substance ivermectin as a standard treatment dosage.
The present studies are based on a case report describing a middle age person suffering from an advanced urothelial cancer with extensive metastasis. Due to a tropical infection this patient received the substance ivermectin. […] The reason for this is not known however a direct effect of the substance ivermectin could not be precluded.

[5] = tested on: breast cancer cell line 2R-75-1; experiment: Morphology of cultured tumor cells, ZR-75-1; format: cell-based, human; conditions: ivermectin 10e-4 to 10e-10 mol/L (FIG. 2)
Procedure: as §3

[6] = ivermectin 10e-4 to 10e-10 mol/L (FIG. 2)

For “22,23-dihydroavermectin B1a+22,23-dihydroavermectin B1b [ivermectin]”, the Effect on morphology ([1]; ivermectin) was “affected cell structure”, the Effect on morphology ([1]; ivermectin 10 μM) was “no effect” and the “Decreased growth of cells, substances tested alone” value ([1]; ivermectin 10 μM alone, albendazole 20 and 40 μM alone (FIG. 11)) was “not seen”. The “Morphological effects over the concentration series” value [1, 6] was “affected even at 10e-6 mol/L”, the Effect on morphology [2] was “affected” and the Effect on morphology (prostate cells (LNCaP); ivermectin 100 μM) was “affected”. The “Morphological effects over the concentration series” value (prostate cells (LNCaP); [6]) was “affected by the highest concentration 10e-4 mol/L only”, the Effect on morphology (prostate cells (LNCaP); ivermectin 1 and 10 μM) was “No effect” and the “Proliferation rate in per cent compared to untreated medium control” value ([3]; ivermectin 10e-9 mol/L) was 114 ± 31%. For the same substance, the “Proliferation rate in per cent compared to untreated medium control” value ([3]; ivermectin 10e-8 mol/L) was 128 ± 30%, the “Proliferation rate in per cent compared to untreated medium control” value ([3]; ivermectin 10e-7 mol/L) was 105 ± 35% and the “Proliferation rate in per cent compared to untreated medium control” value ([3]; ivermectin 10e-6 mol/L) was 95 ± 37%. For the same substance, the “Proliferation rate in per cent compared to untreated medium control” value ([3]; ivermectin 10e-5 mol/L) was 124 ± 34%, the “Proliferation rate in per cent compared to untreated medium control” value ([3]; ivermectin 10e-4 mol/L) was 7±2% and the “Proliferation rate compared to untreated control” value ([3]; IVM 1 μmol/L alone) was 90.0 ± 5.2%. The “Proliferation rate compared to untreated control” value ([3]; IVM 10 μmol/L alone) was 60.5 ± 10.6%, the “Proliferation rate compared to untreated control” value ([3]; IVM 100 μmol/L alone) was 14.4 ± 1.7% and the “Effect on proliferation rate compared to untreated control” value ([3]; ZR-75-1, ivermectin 100 μM alone or in combination) was “reduced the proliferation rate”. The “Clinical outcome of the urothelial cancer” value [4] was “all the clinical signs of the urothelial cancer disappeared; also recorded: treated both the tropical infection and the urothelial cancer” and the “Morphological effects over the concentration series” value [5] was “affected by the highest concentration 10e-4 mol/L only”.
